Laboratory results taken from ChEMBL document CHEMBL1201862, “PubChem BioAssay data set” (2004).
Counter-ions that a name gives are not always drawn. The source made the active and inactive calls.

Legend:
[1] = biological target: Beta-2 adrenergic receptor (Homo sapiens, UniProt P07550); assay: ADRB2 activation measured by internalization – cell-based, FAP fluorogen, flow cytometry, cherry pick 1, dose response (AID 588763); type: functional
[2] = reduction of Shn3 3'UTR-driven luciferase in osteoblasts – cell-based, Clone20 osteoblasts, firefly luciferase, cherry-picked, dose response (AID 624132); type: functional;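 further: firefly luciferase luminescence from reporter carrying the Shn3 3'UTR in osteoblasts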
[3] = non-specific 3'UTR reporter inhibition in Clone20-Shn3RL – cell-based, Renilla luciferase, cherry-picked, counter-screen for Shn3 inhibitor project, dose response (AID 624133); type: functional
[4] = Shn3 3'UTR reporter signal decrease – cell-based, Clone20 osteoblasts, firefly luciferase, cherry-pick, set 2, Schnurri-3 inhibitor project, dose response (AID 720490); type: functional;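 further: actives lower the luminescence signal as inhibitors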
[5] = biological target: Voltage-gated inwardly rectifying potassium channel KCNH2 (Homo sapiens, UniProt Q12809); conditions: Potency;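 further: confirmatory quantitative high-throughput screen measuring inhibition of hERG channel activity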
[6] = biological target: T1, Cytochrome P450 1A2 (Homo sapiens, UniProt P05177);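 further: PubChem cytochrome P450 panel assay, CYP1A2 panel member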
T1 sequence (P05177 whole entry): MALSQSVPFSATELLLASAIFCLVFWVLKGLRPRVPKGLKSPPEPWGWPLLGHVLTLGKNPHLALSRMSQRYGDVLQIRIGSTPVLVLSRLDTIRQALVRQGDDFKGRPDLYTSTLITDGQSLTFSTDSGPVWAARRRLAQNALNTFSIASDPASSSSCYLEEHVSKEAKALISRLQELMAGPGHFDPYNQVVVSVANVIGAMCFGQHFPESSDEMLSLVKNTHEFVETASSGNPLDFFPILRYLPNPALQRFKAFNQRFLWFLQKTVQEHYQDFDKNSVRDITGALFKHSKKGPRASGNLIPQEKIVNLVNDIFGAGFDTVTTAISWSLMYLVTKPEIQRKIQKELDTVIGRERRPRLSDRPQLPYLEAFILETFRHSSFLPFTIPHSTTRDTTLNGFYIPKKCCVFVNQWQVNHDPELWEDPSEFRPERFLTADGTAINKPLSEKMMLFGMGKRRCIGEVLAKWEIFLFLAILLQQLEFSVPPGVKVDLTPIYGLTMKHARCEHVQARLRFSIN

[7] = biological target: Cytochrome P450 3A4 (Homo sapiens, UniProt P08684);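 further: CYP3A4 tested as one member of a cytochrome P450 panel screen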
[8] = biological target: T2, Cytochrome P450 2C9 (Homo sapiens, UniProt P11712)
[9] = biological target: Cytochrome P450 2C19 (Homo sapiens, UniProt P33261); assay: Cytochrome panel assay with activity outcomes. Panel member name: p450-cyp2c19 Compounds with AC50 equal or less than 10 uM are considered active; type: functional
[10] = biological target: Cytochrome P450 2D6 (Homo sapiens, UniProt P10635);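 further: CYP2D6 member of a cytochrome P450 panel assay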
[11] = viability of HCT116 lacking mutant beta-catenin – cell-based, human colon tumor, dose response (AID 1045); type: functional;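 further: HCT116 colon tumor cells with beta catenin knocked out; cells exposed to compound for 60 hours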
[12] = viability of PTEN-deleted HCT116 cells – cell-based, HCT116 PTEN knockout, dose response (AID 1047); type: functional;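 further: HCT116 colon tumor cells with PTEN knocked out; cells exposed to compound for 60 hours before readout; potency for loss of cell viability measured by luminescence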
[13] = tested on: HEK293; assay: cells; conditions: Homo sapiens
[14] = tested on: HEK293; assay: cells; conditions: Homo sapiens; remark: listed apart in the source
[15] = biological target: Genome polyprotein (dengue virus type 2, UniProt P29990); assay: flavivirus cap methylation enzyme inhibition – biochemical, confirmation dose response, primary screen (AID 588689); type: functional
[16] = tested on: Vero; assay: viability of Vero cells under compound – cytotoxicity control for flavivirus capping enzyme inhibitors (AID 588742); type: functional; conditions: Chlorocebus sabaeus
[17] = biological target: Heat shock protein HSP 90-alpha (Homo sapiens, UniProt P07900); type: functional, organism-based
[18] = biological target: T3, Sentrin-specific protease 6 (Homo sapiens, UniProt Q9GZR1); assay: inhibition of human SENP6 catalytic domain – biochemical, luminescence, set 2, SAR follow-up (AID 588598); type: functional
T3 sequence (Q9GZR1 whole entry): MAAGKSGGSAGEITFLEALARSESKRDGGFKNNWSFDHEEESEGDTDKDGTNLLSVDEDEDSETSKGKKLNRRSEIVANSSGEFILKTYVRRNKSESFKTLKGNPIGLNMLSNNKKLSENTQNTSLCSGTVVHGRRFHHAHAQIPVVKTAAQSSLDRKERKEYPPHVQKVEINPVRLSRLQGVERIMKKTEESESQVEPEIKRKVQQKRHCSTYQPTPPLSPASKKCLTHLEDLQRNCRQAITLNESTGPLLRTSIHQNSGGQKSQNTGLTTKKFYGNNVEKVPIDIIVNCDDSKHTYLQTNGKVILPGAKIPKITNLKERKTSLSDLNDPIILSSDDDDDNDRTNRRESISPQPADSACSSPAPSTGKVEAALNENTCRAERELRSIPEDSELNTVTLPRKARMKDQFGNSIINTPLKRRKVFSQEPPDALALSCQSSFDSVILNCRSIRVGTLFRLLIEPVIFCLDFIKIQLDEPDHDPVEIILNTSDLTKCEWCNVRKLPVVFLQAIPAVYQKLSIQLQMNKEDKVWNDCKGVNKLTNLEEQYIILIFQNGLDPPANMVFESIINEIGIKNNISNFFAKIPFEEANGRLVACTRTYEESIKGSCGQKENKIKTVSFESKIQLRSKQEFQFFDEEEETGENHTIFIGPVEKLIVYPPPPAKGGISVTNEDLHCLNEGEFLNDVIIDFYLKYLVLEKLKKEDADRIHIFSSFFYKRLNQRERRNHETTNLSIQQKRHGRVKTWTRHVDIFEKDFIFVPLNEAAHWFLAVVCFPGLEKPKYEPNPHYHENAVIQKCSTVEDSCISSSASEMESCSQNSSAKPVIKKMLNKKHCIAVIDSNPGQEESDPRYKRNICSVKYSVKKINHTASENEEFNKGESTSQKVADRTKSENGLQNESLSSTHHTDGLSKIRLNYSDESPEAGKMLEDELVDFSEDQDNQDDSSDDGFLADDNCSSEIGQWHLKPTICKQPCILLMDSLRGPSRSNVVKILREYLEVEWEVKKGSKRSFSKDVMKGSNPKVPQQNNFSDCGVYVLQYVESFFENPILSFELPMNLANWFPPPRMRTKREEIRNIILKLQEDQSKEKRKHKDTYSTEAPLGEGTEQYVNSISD

[19] = biological target: T4, Sentrin-specific protease 8 (Homo sapiens, UniProt Q96LD8); assay: inhibition of sentrin protease 8 – biochemical, luminescence, set 2, SAR follow-up (AID 588601); type: functional
T4 sequence (Q96LD8 whole entry): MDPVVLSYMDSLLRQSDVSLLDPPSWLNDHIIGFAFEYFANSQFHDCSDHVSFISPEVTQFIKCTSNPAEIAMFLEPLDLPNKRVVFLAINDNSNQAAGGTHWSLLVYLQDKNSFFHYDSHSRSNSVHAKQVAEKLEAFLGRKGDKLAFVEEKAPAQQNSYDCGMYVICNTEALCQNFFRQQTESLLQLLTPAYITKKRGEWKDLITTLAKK

[20] = biological target: T5, Sentrin-specific protease 7 (Homo sapiens, UniProt Q9BQF6); assay: inhibition of human SENP7 cleavage activity – biochemical, luminescence, set 2, SAR follow-up (AID 588600); type: functional
T5 sequence (Q9BQF6 whole entry): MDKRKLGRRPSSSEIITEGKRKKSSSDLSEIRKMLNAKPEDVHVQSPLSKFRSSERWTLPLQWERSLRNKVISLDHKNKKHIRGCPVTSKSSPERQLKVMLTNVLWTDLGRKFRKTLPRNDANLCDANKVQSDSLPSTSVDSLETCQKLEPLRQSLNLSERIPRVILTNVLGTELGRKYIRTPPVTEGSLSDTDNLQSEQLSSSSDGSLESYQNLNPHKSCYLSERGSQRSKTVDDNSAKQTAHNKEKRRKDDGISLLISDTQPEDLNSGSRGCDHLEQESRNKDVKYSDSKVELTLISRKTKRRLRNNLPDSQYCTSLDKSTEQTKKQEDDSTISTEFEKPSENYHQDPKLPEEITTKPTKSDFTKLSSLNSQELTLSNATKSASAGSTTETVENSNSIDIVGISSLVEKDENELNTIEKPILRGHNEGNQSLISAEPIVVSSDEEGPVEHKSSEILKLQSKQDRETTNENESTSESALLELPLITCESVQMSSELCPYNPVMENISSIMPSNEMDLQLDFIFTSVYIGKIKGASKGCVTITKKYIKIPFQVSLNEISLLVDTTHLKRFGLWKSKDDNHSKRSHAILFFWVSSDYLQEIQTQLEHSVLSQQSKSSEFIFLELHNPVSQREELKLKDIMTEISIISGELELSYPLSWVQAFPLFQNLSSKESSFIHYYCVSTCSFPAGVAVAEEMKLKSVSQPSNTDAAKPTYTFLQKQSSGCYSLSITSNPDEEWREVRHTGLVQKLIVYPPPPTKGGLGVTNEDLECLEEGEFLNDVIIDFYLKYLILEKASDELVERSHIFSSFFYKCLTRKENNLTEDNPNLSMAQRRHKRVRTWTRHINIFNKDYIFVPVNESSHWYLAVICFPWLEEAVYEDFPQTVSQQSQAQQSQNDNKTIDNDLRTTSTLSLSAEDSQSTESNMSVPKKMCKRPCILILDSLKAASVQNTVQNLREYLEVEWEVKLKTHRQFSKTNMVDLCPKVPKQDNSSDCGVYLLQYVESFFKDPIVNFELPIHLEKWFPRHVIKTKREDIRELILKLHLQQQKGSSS

[21] = biological target: T5, Sentrin-specific protease 7; assay: inhibition of human SENP7 cleavage activity – biochemical, luminescence, SAR follow-up (AID 504497); type: functional
[22] = biological target: T3, Sentrin-specific protease 6; assay: SAR Analysis of small molecule inhibitors of Sentrin-specific protease 6 (SENP6) using a Luminescent assay. [Related pubchem assays (depositor defined):AID2582, AID2599]; type: functional
[23] = biological target: T6, Caspase-3 (Homo sapiens, UniProt P42574); assay: inhibition of recombinant caspase-3 activity – biochemical, luminescence, set 2, selectivity assay for SENP protease inhibitor project, SAR follow-up (AID 588599); type: functional
T6 sequence (P42574 whole entry): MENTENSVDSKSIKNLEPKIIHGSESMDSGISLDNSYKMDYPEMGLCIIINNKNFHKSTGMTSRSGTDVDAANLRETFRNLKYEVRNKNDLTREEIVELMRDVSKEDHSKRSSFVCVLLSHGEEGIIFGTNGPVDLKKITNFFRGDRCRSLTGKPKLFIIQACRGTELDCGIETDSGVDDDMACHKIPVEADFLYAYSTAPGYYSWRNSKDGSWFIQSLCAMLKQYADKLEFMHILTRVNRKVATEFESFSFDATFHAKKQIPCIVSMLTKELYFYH

[24] = biological target: T6, Caspase-3; assay: SAR Analysis of small molecule inhibitors of Sentrin-specific proteases (SENPs) using a Caspase-3 Selectivity assay. [Related pubchem assays (depositor defined):AID2540, AID2599, AID434973, AID489001]; type: functional
[25] = biological target: T4, Sentrin-specific protease 8; assay: inhibition of human SENP8 cleavage activity – biochemical, luminescence, SAR follow-up (AID 504501); type: functional
[26] = biological target: T2, Cytochrome P450 2C9; remark: listed apart in the source
[27] = biological target: T2, Cytochrome P450 2C9; conditions: Potency

T2 sequence (P11712 whole entry): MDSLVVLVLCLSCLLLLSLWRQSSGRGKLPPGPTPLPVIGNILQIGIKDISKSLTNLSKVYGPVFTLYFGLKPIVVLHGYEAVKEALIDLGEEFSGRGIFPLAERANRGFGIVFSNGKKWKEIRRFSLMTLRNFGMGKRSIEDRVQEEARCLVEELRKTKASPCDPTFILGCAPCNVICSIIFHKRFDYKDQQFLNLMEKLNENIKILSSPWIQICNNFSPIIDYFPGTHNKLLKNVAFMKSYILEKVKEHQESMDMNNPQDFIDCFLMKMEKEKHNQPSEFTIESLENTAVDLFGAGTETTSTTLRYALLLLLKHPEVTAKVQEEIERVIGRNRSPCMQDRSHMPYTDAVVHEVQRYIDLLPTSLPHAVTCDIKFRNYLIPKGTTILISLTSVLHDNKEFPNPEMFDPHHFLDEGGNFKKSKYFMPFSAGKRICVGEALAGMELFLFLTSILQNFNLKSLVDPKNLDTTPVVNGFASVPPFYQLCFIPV
Chain of Beta-2 adrenergic receptor (P07550 whole entry): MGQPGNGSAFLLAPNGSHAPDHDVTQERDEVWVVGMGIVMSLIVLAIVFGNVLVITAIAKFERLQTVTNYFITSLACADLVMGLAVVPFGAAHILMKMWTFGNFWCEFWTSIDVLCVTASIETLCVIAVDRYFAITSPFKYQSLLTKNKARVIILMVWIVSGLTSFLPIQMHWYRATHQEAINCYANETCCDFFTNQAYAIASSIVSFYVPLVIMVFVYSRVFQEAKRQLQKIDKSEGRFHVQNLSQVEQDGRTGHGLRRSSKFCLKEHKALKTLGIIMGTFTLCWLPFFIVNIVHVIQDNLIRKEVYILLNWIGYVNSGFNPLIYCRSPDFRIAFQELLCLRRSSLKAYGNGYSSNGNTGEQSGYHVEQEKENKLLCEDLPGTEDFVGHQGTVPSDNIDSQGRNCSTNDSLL
Chain of Cytochrome P450 2D6 (P10635 whole entry): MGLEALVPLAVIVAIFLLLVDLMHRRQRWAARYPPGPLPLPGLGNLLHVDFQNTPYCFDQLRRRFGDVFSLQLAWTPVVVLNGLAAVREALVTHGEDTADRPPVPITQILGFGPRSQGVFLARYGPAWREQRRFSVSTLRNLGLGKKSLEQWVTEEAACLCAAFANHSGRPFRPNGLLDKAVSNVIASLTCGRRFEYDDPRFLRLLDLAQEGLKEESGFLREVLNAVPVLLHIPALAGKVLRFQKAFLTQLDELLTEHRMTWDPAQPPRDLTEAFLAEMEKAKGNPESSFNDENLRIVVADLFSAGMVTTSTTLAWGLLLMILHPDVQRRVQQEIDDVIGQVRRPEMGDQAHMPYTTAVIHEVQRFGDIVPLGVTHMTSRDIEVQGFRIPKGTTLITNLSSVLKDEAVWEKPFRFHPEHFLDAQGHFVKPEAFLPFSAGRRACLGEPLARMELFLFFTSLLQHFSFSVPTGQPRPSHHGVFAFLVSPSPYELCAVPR
Chain of Voltage-gated inwardly rectifying potassium channel KCNH2 (Q12809 whole entry): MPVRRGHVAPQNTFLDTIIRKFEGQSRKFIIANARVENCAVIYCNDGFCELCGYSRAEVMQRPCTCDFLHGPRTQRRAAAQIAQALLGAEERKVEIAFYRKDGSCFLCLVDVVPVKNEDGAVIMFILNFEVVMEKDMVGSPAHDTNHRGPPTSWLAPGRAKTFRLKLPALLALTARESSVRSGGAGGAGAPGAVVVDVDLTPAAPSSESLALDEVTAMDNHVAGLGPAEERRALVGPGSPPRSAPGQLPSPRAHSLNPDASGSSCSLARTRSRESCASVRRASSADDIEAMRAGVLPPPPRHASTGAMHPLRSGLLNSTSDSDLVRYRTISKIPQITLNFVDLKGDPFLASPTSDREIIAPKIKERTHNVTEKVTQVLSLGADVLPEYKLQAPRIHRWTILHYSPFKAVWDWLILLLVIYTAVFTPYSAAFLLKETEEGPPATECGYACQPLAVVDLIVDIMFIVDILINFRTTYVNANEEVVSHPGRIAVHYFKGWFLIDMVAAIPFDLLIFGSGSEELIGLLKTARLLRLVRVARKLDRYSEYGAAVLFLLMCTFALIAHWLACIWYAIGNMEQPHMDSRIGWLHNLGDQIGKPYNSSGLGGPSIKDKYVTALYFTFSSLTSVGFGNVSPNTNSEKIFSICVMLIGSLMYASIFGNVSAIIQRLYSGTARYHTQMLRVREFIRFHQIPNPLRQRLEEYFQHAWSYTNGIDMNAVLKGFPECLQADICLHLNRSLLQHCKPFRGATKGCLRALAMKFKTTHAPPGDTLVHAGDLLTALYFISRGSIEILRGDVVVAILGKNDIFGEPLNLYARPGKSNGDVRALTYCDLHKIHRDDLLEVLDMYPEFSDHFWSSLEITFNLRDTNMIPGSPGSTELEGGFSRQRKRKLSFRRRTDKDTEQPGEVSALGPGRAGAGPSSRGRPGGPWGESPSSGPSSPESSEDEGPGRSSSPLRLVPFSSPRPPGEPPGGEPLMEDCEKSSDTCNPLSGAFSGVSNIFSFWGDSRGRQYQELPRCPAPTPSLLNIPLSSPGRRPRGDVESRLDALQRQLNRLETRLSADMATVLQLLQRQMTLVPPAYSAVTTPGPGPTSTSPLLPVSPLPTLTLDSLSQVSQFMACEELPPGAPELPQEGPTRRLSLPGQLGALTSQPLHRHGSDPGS
Chain of Cytochrome P450 3A4 (P08684 whole entry): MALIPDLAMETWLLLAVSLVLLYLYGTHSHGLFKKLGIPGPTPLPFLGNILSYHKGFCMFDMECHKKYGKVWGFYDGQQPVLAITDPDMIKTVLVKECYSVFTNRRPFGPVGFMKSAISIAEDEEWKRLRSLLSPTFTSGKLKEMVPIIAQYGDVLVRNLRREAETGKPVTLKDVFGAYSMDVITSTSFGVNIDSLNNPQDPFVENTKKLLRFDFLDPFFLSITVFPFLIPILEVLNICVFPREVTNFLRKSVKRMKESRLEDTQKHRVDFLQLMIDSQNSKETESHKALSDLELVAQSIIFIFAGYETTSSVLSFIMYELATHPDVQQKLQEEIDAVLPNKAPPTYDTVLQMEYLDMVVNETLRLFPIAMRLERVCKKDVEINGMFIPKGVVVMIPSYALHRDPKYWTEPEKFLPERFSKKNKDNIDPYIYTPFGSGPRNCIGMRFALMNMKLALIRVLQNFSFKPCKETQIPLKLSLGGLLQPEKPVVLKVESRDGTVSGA
Chain of Genome polyprotein (P29990 2492-3391 limits assumed): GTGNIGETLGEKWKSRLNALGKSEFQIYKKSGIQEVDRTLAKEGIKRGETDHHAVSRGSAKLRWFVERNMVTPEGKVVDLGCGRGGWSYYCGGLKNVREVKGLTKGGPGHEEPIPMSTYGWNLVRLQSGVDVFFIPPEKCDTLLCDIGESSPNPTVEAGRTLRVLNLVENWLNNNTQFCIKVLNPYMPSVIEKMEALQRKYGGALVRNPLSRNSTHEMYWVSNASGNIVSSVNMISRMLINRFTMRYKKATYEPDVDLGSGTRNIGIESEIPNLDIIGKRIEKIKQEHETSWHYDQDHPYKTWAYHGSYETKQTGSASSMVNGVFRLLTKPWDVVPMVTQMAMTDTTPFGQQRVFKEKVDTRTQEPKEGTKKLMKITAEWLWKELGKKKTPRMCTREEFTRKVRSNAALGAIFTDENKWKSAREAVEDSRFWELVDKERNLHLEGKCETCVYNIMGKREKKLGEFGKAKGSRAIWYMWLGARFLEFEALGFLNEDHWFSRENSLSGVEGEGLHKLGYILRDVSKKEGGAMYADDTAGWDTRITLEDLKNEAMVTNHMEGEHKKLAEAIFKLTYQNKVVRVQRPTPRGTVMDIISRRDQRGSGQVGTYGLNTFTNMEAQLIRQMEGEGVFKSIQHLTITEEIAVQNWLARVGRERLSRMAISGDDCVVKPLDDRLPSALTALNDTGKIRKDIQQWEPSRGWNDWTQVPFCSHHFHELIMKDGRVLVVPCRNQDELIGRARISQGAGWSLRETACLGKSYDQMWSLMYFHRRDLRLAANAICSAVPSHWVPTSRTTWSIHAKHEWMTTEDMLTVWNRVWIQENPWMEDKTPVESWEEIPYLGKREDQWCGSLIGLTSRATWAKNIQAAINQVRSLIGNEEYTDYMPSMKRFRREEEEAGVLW
Chain of Cytochrome P450 2C19 (P33261 whole entry): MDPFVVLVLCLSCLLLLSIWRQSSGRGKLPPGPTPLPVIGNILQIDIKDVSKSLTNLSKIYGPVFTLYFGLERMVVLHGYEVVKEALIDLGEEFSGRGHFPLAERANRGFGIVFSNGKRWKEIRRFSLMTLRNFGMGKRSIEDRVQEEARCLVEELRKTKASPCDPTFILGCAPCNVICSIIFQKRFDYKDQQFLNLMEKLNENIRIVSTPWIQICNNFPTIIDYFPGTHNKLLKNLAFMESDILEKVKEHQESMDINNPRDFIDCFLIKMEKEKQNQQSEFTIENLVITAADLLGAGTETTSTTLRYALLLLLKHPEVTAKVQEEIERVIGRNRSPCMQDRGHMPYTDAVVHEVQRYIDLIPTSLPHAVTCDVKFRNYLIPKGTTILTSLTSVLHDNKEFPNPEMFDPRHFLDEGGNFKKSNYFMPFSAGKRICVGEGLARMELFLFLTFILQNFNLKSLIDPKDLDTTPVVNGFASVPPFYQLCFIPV

Compound: COc1ccccc1OCCCC(=O)Nc1nccs1
- EC50 [1]: 5.11 µM (active)

Compound: Cc1ccc(-c2nc3ncccc3o2)cc1NC(=O)c1sc2ccccc2c1Cl
- AC50 [2]: 5.87 µM (active)
- EC50 [1]: 0.722 µM (active)
- AC50 [3]: 36.5 µM (active)
- AC50 [4]: 11.8 µM (active)

Compound: Nc1nc2c(nc(Br)n2C2O[C@H]3CO[P@@](=O)(O)O[C@@H]3C2O)c(=O)[nH]1 (stereo not given in full)
- AC50 [5]: 5.62 µM (inconclusive)

Compound: c1ccc(C(c2ccccc2)N2CC3(CCNCC3)C2)cc1
- AC50 [6]: 15.8 µM (inconclusive)
- AC50 [7]: inconclusive
- AC50 [8]: 39.8 µM (inconclusive)

Compound: O=C(O)CC1(C(=O)O)CCCCC1
- AC50 [9]: inconclusive
- AC50 [10]: inconclusive

Compound: COc1ccc(-c2[nH]c(-c3ccc(Cl)cc3)nc2SCC(=O)Nc2nccs2)cc1
- EC50 [11]: 15.3 µM (active)
- EC50 [12]: 15.9 µM (active)
- EC50 [13]: > 59.7 µM (inactive)
- EC50 [14]: > 59.7 µM (inactive)

Compound: CCOC(=O)CN=C(S)N(Cc1cccs1)C1CCCCC1
- EC50 [13]: > 59.6 µM (inactive)
- EC50 [14]: > 59.6 µM (inactive)

Compound: CC(=O)N(C(C)=O)N1C(=O)/C(=C/c2ccc(Cl)cc2)SC1=S
- IC50 [15]: 23.5 µM (active)
- CC50 [16]: > 40 µM (active)
- AC50 [17]: 1.34 µM (active)

Compound: CCCCc1ccc2nc(NC(=O)c3cccn3C)sc2c1
- IC50 [18]: 0.938 µM (active)
- IC50 [19]: 0.944 µM (active)
- IC50 [20]: 0.987 µM (active)
- IC50 [21]: 0.92 µM (active)
- IC50 [22]: 0.79 µM (active)
- IC50 [23]: 0.749 µM (active)
- IC50 [24]: 0.72 µM (active)
- IC50 [25]: 0.81 µM (active)

Compound: Cc1ccc2nc(NC(=O)c3cccc(S(=O)(=O)NCC4CCCO4)c3)sc2c1 (stereo not given)
- IC50 [18]: > 99 µM (inactive)
- IC50 [19]: > 99 µM (inactive)
- IC50 [20]: > 99 µM (inactive)
- IC50 [23]: > 99 µM (inactive)

Compound: O=C(CCc1ccccc1)NNc1cc(N2CCOCC2)nc(N2CCOCC2)n1
- IC50 [21]: > 99 µM (inactive)
- IC50 [22]: > 99 µM (inactive)
- IC50 [24]: > 99 µM (inactive)
- IC50 [25]: > 99 µM (inactive)

Compound: COc1cc2c(c(OC)c1OC)-c1ccc(OC)c(=O)cc1[C@H](NC(C)=O)CC2
- AC50 [26]: inactive
- AC50 [10]: inactive
- AC50 [27]: 39.8 µM (inconclusive)

Compound: Nc1c2c(nc3ccccc13)CCCC2O (stereo not given) [VELNACRINE MALEATE]
- AC50 [5]: 35.5 µM (inconclusive)
